Assay [1] relates to KRAS G12V mutant NCI-H727 cells. Briefly: Proliferation inhibition of NCI-H727 cells, 3D CellTiter-Glo assay (Method B). Type of assay: cell-based, human. The following applies: Homo sapiens, NCI-H727, 120 h, 3D culture with 0.65% methylcellulose, 5 days, CTG. The protocol: NCI-H727 cells (Nanjing Kebai Biotechnology Co., Ltd., catalog number CBP60182, adherent, culture medium RPMI-1640+10%FBS (GIBCO, Cat#10091-148)) were cultured at 37°C, 5% CO2, and 95% humidity.
3D cell viability assay: Cells in the logarithmic growth phase were harvested and counted using a platelet counter. Cell viability was assessed using the trypan blue exclusion method to ensure a viability of over 90%. The 3D cell culture medium was prepared by adding 1% MC (methylcellulose, Sigma, Cat#M0512) to RPMI-1640 medium and 10% FBS. The cell concentration was adjusted to approximately 25,000 cells/mL using the 3D medium, and the methylcellulose (MC) content was set to 0.65%. Then, 80 µL of cell suspension was added to each 96-well clear, flat-bottomed, black-walled plate (Greiner, Cat# 655096). The cells in the 96-well plates were cultured overnight at 37°C and 5% CO2.
Drug preparation for IC50 assay: A 5-fold drug solution was prepared using culture medium. 20 µL of the drug solution was added to each well of a 96-well plate seeded with cells to achieve a working concentration of up to 10 µM, with a 3× dilution, and 9 concentrations. 2 replicate wells for each drug concentration were set. The cells in the drug-treated 96-well plates were cultured at 37°C and 5% CO2 for additional 5 days, then CTG assay (CellTiter-Glo® Luminescent Cell Viability Assay (Promega, Cat#G7573)) were performed.
The cell plate was equilibrated to room temperature for 30 minutes and the CTG reagent was thawed. 50 µL of CTG solution was added to each well for detection and the plate was shaken on an orbital shaker for 5 minutes to lyse the cells. The cell plate was then placed at room temperature for 25 minutes to stabilize the cryo-luminescence signal, and the cryo-luminescence value was read (EnVision® multi-plate reader, PerkinElmer#2105).
(§1) Data was analyzed using GraphPad Prism software. The dose-response-inhibition equation was used to fit the data to obtain the dose-response curve, and the IC50 value (nM) was calculated accordingly. [formula]
(ATP-based viability assays read luminescence as a measure of living cells.)

In assay [2] the test system is KRAS G12D mutant AGS cells. Briefly: Proliferation inhibition of AGS cells, CellTiter-Glo assay. Type of assay: cell-based, human. The following applies: Homo sapiens, AGS, 72 h, 3 days, CTG; read-out: AGS IC50/nM. The protocol:
AGS cells (Nanjing Kebai Biotechnology Co., Ltd., catalog number CBP60476, adherent, culture medium (F12K Nutrient Mixture+10% FBS (GIBCO, Cat#10091-148) were cultured at 37°C, 5% CO2, and 95% humidity at a density of 1500 cells/well. Cells in the logarithmic growth phase were harvested and counted using a Countstar automated cell counter based on the classic trypan blue staining method to ensure cell viability was above 90%. The cell concentration was adjusted, and 80 µL of cell suspension was added to each 96-well clear flat-bottomed, black-walled plate (Greiner, Cat# 655090). The cells in the 96-well plates were then cultured at 37°C and 5% CO2.
Drug preparation for IC50 assay: A 5-fold drug solution was prepared using culture medium. 20 µL of the drug solution was added to each well of a 96-well plate seeded with cells to achieve a working concentration of up to 10 µM, with a 3 × dilution, and a total of 9 concentrations. 2 replicate wells for each drug concentration were set. The cells in the drug-treated 96-well plates were cultured at 37°C and 5% CO2 for additional 3 days and then CTG assay were performed.
The cell plate was equilibrated to room temperature for 30 minutes and the CTG reagent (CellTiter-Glo® Luminescent Cell Viability Assay (Promega, Cat# G7573)) was thawed. 50 µL of CTG solution was added to each well and the plate was shaken on an orbital shaker for 2 minutes to lyse the cells. The cell plate was placed at room temperature for 10 minutes to stabilize the cryo-luminescence signal and the cryo-luminescence value was read (EnVision® Multifunctional microplate reader, PerkinElmer #2105).
as §1

Setting [3] is: Method B, read-out: NCI-H727 IC50/nM.

Results on eight molecules are retold here after patent publication EP4775577A1, “RAS INHIBITOR” (Tyligand Bioscience (Shanghai) Limited, priority 2023, dated 2025).

Where two headings read alike, the source gives them in different places.

As for `CN1CC[C@H](C(F)F)[C@](C)(COc2nc(N3CCCn4nc(C(=O)N(C)C)cc4C3)c3cc(C(F)(F)F)c(-c4cccc5sc(N)c(C#N)c45)c(F)c3n2)C1` [Example 7, 5-(7-(2-Amino-3-cyanobenzo[b]thiophene-4-yl)-2-(((3S,4S)-4-(difluoromethyl)-1,3-dimethylpiperidine-3-yl)methoxy)-8-fluoro-6-(trifluoromethyl)quinazoline-4-yl)-N,N-dimethyl-5,6,7,8-tetrahydro-4H-pyrazolo[1,5-a][1,4]diazepine-2-formamide], the IC50 in assay [1] (setting [3]) stood at 13.1 nM; in assay [2], 6.7 nM.

For `CN1CC/C(=C\F)[C@](C)(COc2nc(N3CCCn4nc(C(=O)N(C)C)cc4C3)c3cc(C(F)(F)F)c(-c4cccc5sc(N)c(C#N)c45)c(F)c3n2)C1` [Example 8, 5-(7-(2-Amino-3-cyanobenzo[b]thiophene-4-yl)-8-fluoro-2-(((S,E)-4-(fluoromethylene)-1,3-dimethylpiperidine-3-yl)methoxy)-6-(trifluoromethyl)quinazoline-4-yl)-N,N-dimethyl-5,6,7,8-tetrahydro-4H-pyrazolo[1,5-a][1,4]diazepine-2-formamide], the IC50 in assay [1] (setting [3]) amounted to 21.3 nM; in assay [2], 8.1 nM.

On to `CN1CC/C(=C\F)[C@](C)(COc2nc(N3CCOC[C@@](C)(O)C3)c3cc(C(F)(F)F)c(-c4ccc(F)c5sc(N)c(C#N)c45)c(F)c3n2)C1` [Example 16], for which the IC50 in assay [1] (read-out: NCI-H727 IC50/nM, Method B) was found to be 5 nM; in assay [2], 13.2 nM.

Turning to `[2H]C([2H])([2H])N1CC[C@H](C(F)F)[C@](C)(COc2nc(N3CCCn4nc(C(=O)N(C)C)cc4C3)c3cc(C(F)(F)F)c(-c4c(F)ccc5sc(N)c(C#N)c45)c(F)c3n2)C1` [Example 67, 5-(7-(2-Amino-3-cyano-5-fluorobenzo[b]thiophene-4-yl)-2-(((3S,4S)-4-(difluoromethyl)-3-methyl-1-(methyl-d3)piperidine-3-yl)methoxy)-8-fluoro-6-(trifluoromethyl)quinazoline-4-yl)-N,N-dimethyl-5,6,7,8-tetrahydro-4H-pyrazolo[1,5-a][1,4]diazepine-2-formamide], the IC50 in assay [1] (setting [3]) worked out at 6.3 nM; in assay [2] it was 1.75 nM.

As to `[2H]C([2H])([2H])N1CC/C(=C\F)[C@](C)(COc2nc(N3CCCn4nc(C(=O)N(C)C)cc4C3)c3cc(C(F)(F)F)c(-c4c(F)ccc5sc(N)c(C#N)c45)c(F)c3n2)C1` [Example 68, 5-(7-(2-amino-3-cyano-5-fluorobenzo[b]thiophene-4-yl)-8-fluoro-2-(((S,E)-4-(fluoromethylene)-3-methyl-1-(methyl-d3)piperidine-3-yl)methoxy)-6-(trifluoromethyl)quinazoline-4-yl)-N,N-dimethyl-5,6,7,8-tetrahydro-4H-pyrazolo[1,5-a][1,4]diazepine-2-formamide], the IC50 worked out at 6.4 nM in assay [1] (setting [3]) and 1.9 nM in assay [2].

For `[2H]C([2H])([2H])N1CC[C@H](C(F)F)[C@](C)(COc2nc(N3CCOC[C@@](C)(O)C3)c3cc(Cl)c(-c4cccc5sc(N)c(C#N)c45)c(F)c3n2)C1` [Example 83], the IC50 in assay [1] (setting [3]) stood at 20.2 nM; in assay [2], 38.2 nM.

As to `[2H]C([2H])([2H])N1CC/C(=C\F)[C@](C)(COc2nc(N3CCOC[C@@](C)(O)C3)c3cc(Cl)c(-c4cccc5sc(N)c(C#N)c45)c(F)c3n2)C1` [Example 84, 2-Amino-4-(6-chloro-8-fluoro-2-(((S,E)-4-(fluoromethylene)-3-methyl-1-(methyl-d3)piperidine-3-yl)methoxy)-4-((S)-6-hydroxy-6-methyl-1,4-oxazacycloheptane-4-yl)quinazoline-7-yl)benzo[b]thiophene-3-carbonitrile], the IC50 in assay [1] (setting [3]) turned out to be 77.7 nM; in assay [2], 59 nM.

As for `[2H]C([2H])([2H])N1CC[C@H](C(F)F)[C@](C)(COc2nc(N3CCOC[C@@](C)(O)C3)c3cc(C#N)c(-c4cccc5sc(N)c(C#N)c45)c(F)c3n2)C1` [Example 91], the IC50 in assay [1] (setting [3]) worked out at 48.5 nM; in assay [2] it was 84.7 nM.
